Literature values, collected in US20070020305A1, “Attractant for monitoring or controlling female stored product moths” (Board of Regents for Oklahoma State University, priority 2004, published 2007).

System: stored product moths
Details: for Attraction of females and males: Indianmeal moth and Mediterranean flour moth, Toth et al. 2002

| Compound | Attraction of females and males | Attractiveness to stored product moths, in words (background statement) |
| --- | --- | --- |
| CC(=O)O [acetic acid] | would attract females and males | – |
| CCCCC/C=C\C=C\C(=O)OCC [ethyl-decdienoate] | – | not attractive |
| CC(C)CCO [isoamyl alcohol] | would attract females and males | – |
